Assay results published in patent US10448639B2, “Fungicidal pyrazoles” (FMC CORPORATION, priority 2009, dated 2019).
Marks after values point to notes of the source that are not given here.

What was measured:
[1] = test system: Puccinia recondita f. sp. tritici; experiment: Test I: wheat leaf rust, preventive spray on wheat seedlings, visual disease rating; conditions: for Test I rating (% disease control) / Test I disease control rating: 100 = 100% disease control; for Test I disease control rating: sprayed the day before inoculation, 0 = no disease control relative to controls
Botrytis cinerea = experiment: Test B: tomato Botrytis, preventive spray on tomato seedlings, visual disease rating; conditions: for Test B rating (% disease control) / Test B disease control rating: 100 = 100% disease control; for Test B disease control rating: 0 = no disease control relative to controls
Septoria tritici = experiment: Test G: wheat leaf blotch, preventive spray on wheat seedlings, visual disease rating; conditions: for Test G rating (% disease control) / Test G disease control rating: 100 = 100% disease control; for Test G disease control rating: sprayed the day before inoculation, 0 = no disease control relative to controls
Alternaria solani = experiment: Test C: tomato early blight, preventive spray on tomato seedlings, visual disease rating; conditions: for Test C rating (% disease control) / Test C disease control rating: 100 = 100% disease control; for Test C disease control rating: 0 = no disease control relative to controls
[2] = test system: Erysiphe graminis f sp. tritici; experiment: Test J: wheat powdery mildew, preventive spray on wheat seedlings, visual disease rating; conditions: for Test J rating (% disease control) / Test J disease control rating: 100 = 100% disease control; for Test J disease control rating: sprayed the day before inoculation, 0 = no disease control relative to controls
Excerpt: General protocol for preparing test suspensions for Tests A-J: the test compounds were first dissolved in acetone in an amount equal to 3% of the final volume and then suspended at the desired concentration (in ppm) in acetone and purified water (50/50 mix by volume) containing 250 ppm of the surfactant Trem® 014 (polyhydric alcohol esters). The resulting test suspensions were then used in Tests A-J. Spraying a 200 ppm test suspension to the point of run-off on the test plants was the equivalent of a rate of 500 g/ha. Unless otherwise indicated, the rating values indicate a 200 ppm test suspension was used. (An asterisk “*” next to the rating value indicates a 40 ppm test suspension was used.)
The test suspension was sprayed to the point of run-off on wheat seedlings. The following day the seedlings were inoculated with a spore dust of Erysiphe graminis f sp. tritici, (the causal agent of wheat powdery mildew) and incubated in a growth chamber at 20° C. for 8 days, after which time visual disease ratings were made.

Septoria nodorum = experiment: Test F: Septoria glume blotch, preventive spray on wheat seedlings, visual disease rating; conditions: for Test F rating (% disease control) / Test F disease control rating: 100 = 100% disease control; for Test F disease control rating: 0 = no disease control relative to controls
[3] = test system: Puccinia recondita f. sp. tritici; experiment: Test H: wheat leaf rust, curative spray on inoculated wheat seedlings, visual disease rating; conditions: for Test H rating (% disease control) / Test H disease control rating: 100 = 100% disease control; for Test H disease control rating: sprayed after inoculation, 0 = no disease control relative to controls
[4] = wheat leaf rust, preventive, 0 = no control relative to controls
[5] = tomato Botrytis, 0 = no control relative to controls
[6] = wheat leaf blotch, 0 = no control relative to controls
[7] = tomato early blight, 0 = no control relative to controls
[8] = wheat powdery mildew, 0 = no control relative to controls
[9] = Septoria glume blotch, 0 = no control relative to controls
[10] = wheat leaf rust, curative, 0 = no control relative to controls
[11] = wheat leaf rust, preventive spray, 0 = no control
[12] = tomato Botrytis, preventive spray, 0 = no control
[13] = wheat leaf blotch, preventive spray, 0 = no control
[14] = tomato early blight, preventive spray, 0 = no control
[15] = wheat powdery mildew, preventive spray, 0 = no control
[16] = Septoria glume blotch on wheat, preventive spray, 0 = no control
[17] = wheat leaf rust, curative spray, 0 = no control

| SMILES | Test I rating (% disease control) [1, 4] | Test B rating (% disease control) (Botrytis cinerea; [5]) | Test G rating (% disease control) (Septoria tritici; [6]) | Test C rating (% disease control) (Alternaria solani; [7]) | Test J rating (% disease control) [2, 8] | Test F rating (% disease control) (Septoria nodorum; [9]) | Test H rating (% disease control) [3, 10] | Test I rating (% disease control) [1, 11] | Test B rating (% disease control) (Botrytis cinerea; [12]) | Test G rating (% disease control) (Septoria tritici; [13]) | Test C rating (% disease control) (Alternaria solani; [14]) | Test J rating (% disease control) [2, 15] | Test F rating (% disease control) (Septoria nodorum; [16]) | Test H rating (% disease control) [3, 17] | further results |
| --- | --- | --- | --- | --- | --- | --- | --- | --- | --- | --- | --- | --- | --- | --- | --- |
| Cc1nn(C)c(Oc2ccc(F)cc2C#N)c1-c1ccc(F)cc1Cl [compound 149] | 100% | 100% | 100% | 98% | 100% | 100% | 99% |  |  |  |  |  |  |  |  |
| Cc1nn(C)c(Oc2cc(F)c(C#N)cc2F)c1-c1ccc(F)cc1Cl [Compound 148, 4-[[4-(2-chloro-4-fluorophenyl)-1,3-dimethyl-1H-pyrazol-5-yl]oxy]-2,5-difluorobenzonitrile] |  |  |  |  |  |  |  |  |  |  |  |  |  |  | pest or weed control at 200 µg/mL ([1]; 192 h, read-out: Test I rating (% disease control)): 100%; pest or weed control at 200 µg/mL (Botrytis cinerea; Botrytis cinerea, in Solanum lycopersicum, 120 h, read-out: Test B rating (% disease control)): 99%; pest or weed control at 200 µg/mL (Septoria tritici; Zymoseptoria tritici, in Triticum aestivum, 504 h, read-out: Test G rating (% disease control)): 100%; pest or weed control at 200 µg/mL (Alternaria solani; Alternaria solani, in Solanum lycopersicum, 168 h, read-out: Test C rating (% disease control)): 99%; pest or weed control at 200 µg/mL ([2]; Blumeria graminis, in Triticum aestivum, 192 h, read-out: Test J rating (% disease control)): 99%; pest or weed control at 200 µg/mL (Septoria nodorum; Parastagonospora nodorum, in Triticum aestivum, 192 h, read-out: Test F rating (% disease control)): 100%; pest or weed control at 200 µg/mL ([3]; 144 h, read-out: Test H rating (% disease control)): 61% |
| Cc1nn(C)c(Nc2c(F)cccc2F)c1-c1ccc(Cl)cc1 [compound 33] |  |  |  |  |  |  |  | 18% | 0% | 95% | 0% | 0% | 0% | 0% |  |
| COc1cc(F)c(-c2c(C)nn(C)c2Nc2ccc(Cl)nc2)c(F)c1 [compound 34] |  |  |  |  |  |  |  |  |  |  |  |  |  |  | Test I rating (% disease control), value marked * ([1]; wheat leaf rust, preventive spray, rating marked with asterisk (different test condition, key not given)): 76* %; Test B rating (% disease control), value marked * (Botrytis cinerea; tomato Botrytis, preventive spray, rating marked with asterisk (different test condition, key not given)): 100* %; Test G rating (% disease control), value marked * (Septoria tritici; wheat leaf blotch, preventive spray, rating marked with asterisk (different test condition, key not given)): 96* %; Test C rating (% disease control), value marked * (Alternaria solani; tomato early blight, preventive spray, rating marked with asterisk (different test condition, key not given)): 97* %; Test J rating (% disease control), value marked * ([2]; wheat powdery mildew, preventive spray, rating marked with asterisk (different test condition, key not given)): 0* %; Test F rating (% disease control), value marked * (Septoria nodorum; Septoria glume blotch, preventive spray, rating marked with asterisk (different test condition, key not given)): 0* %; Test H rating (% disease control), value marked * ([3]; wheat leaf rust, curative spray, rating marked with asterisk (different test condition, key not given)): 0* % |
| Cc1nn(C)c(Nc2ccc(F)cc2)c1-c1ccccc1C(F)(F)F [compound 237] | 68% | 99% | 97% | 0% | 97% | 0% | 0% |  |  |  |  |  |  |  |  |
| Cc1nn(C)c(Nc2cccc(F)c2F)c1-c1c(F)cccc1F [compound 198] | 94% | 97% | 100% | 68% | 97% | 0% | 0% |  |  |  |  |  |  |  |  |
| Cc1nn(C)c(Nc2ccc(F)cc2Cl)c1-c1ccccc1C(F)(F)F [compound 236] | 68% | 97% | 96% | 0% | 97% | 0% | 0% |  |  |  |  |  |  |  |  |
| C=CCN(c1c(F)cc(OC)cc1F)c1c(-c2ccc(F)cc2Cl)c(C)nn1C [compound 159] | 99% | 99% | 100% | 0% | 100% | 0% | 74% |  |  |  |  |  |  |  |  |
| Cc1nn(C)c(Nc2c(Cl)cc(F)cc2Br)c1-c1ccc(F)cc1F [compound 348] |  |  |  |  |  |  |  |  |  |  |  |  |  |  | Test I disease control rating ([1]; wheat leaf rust): 100%; Test B disease control rating (Botrytis cinerea; tomato Botrytis): 100%; Test G disease control rating (Septoria tritici; wheat leaf blotch): 100%; Test C disease control rating (Alternaria solani; tomato early blight): 80%; Test J disease control rating ([2]; wheat powdery mildew): 100%; Test F disease control rating (Septoria nodorum; Septoria glume blotch on wheat): 94%; Test H disease control rating ([3]; wheat leaf rust): 19% |
| Cc1nn(C)c(Nc2c(F)cccc2F)c1-c1ccc(Cl)cc1Cl [compound 353] |  |  |  |  |  |  |  |  |  |  |  |  |  |  | Test I disease control rating ([1]; wheat leaf rust): 99%; Test B disease control rating (Botrytis cinerea; tomato Botrytis): 97%; Test G disease control rating (Septoria tritici; wheat leaf blotch): 99%; Test C disease control rating (Alternaria solani; tomato early blight): 17%; Test J disease control rating ([2]; wheat powdery mildew): 99%; Test F disease control rating (Septoria nodorum; Septoria glume blotch on wheat): 0%; Test H disease control rating ([3]; wheat leaf rust): 3% |
| COc1cc(F)c(Nc2c(-c3cccc(Cl)c3)c(C)nn2C)c(F)c1 [compound 25] |  |  |  |  |  |  |  | 94% | 100% | 100% | 0% | 79% | 0% | 0% |  |
| COc1cc(F)c(-c2c(C)nn(C)c2Oc2c(F)cccc2F)c(F)c1 [compound 84] |  |  |  |  |  |  |  | 100% | 100% | 100% | 100% | 99% | 78% | 98% |  |
| COc1ccc(Nc2c(-c3ccc(Cl)cc3Cl)c(C)nn2C)cc1OC [compound 74] |  |  |  |  |  |  |  | 0% | 0% | 25% | 0% | 0% | 0% | 4% |  |
| COc1cc(Oc2c(-c3c(F)cc(F)cc3F)c(C)nn2C)ccc1Br [compound 166] | 68% | 0% | 97% | 0% | 96% | 0% | 0% |  |  |  |  |  |  |  |  |
| CCn1nc(C)c(-c2ccc(Cl)cc2Cl)c1Nc1ccc(F)cc1F [compound 70] |  |  |  |  |  |  |  | 85% | 99% | 99% | 0% | 98% | 0% | 41% |  |
| Cc1nn(C)c(Nc2ncc(Cl)cc2Cl)c1-c1c(F)cccc1F [compound 321] |  |  |  |  |  |  |  |  |  |  |  |  |  |  | Test I disease control rating ([1]; wheat leaf rust): 99%; Test B disease control rating (Botrytis cinerea; tomato Botrytis): 100%; Test G disease control rating (Septoria tritici; wheat leaf blotch): 100%; Test C disease control rating (Alternaria solani; tomato early blight): 99%; Test J disease control rating ([2]; wheat powdery mildew): 100%; Test F disease control rating (Septoria nodorum; Septoria glume blotch on wheat): 78%; Test H disease control rating ([3]; wheat leaf rust): 9% |
